# Reference: publication PMC12300041, “Tricyclic Isatin Derivatives as Anti-Inflammatory Compounds with High Kinase Binding Affinity” (Molecules, 2025)
# How the values were obtained:
# Assay in all cases: KINOMEscan
# Format in all cases: binding
# PRKCE = target: T1, PRKCE (Homo sapiens, UniProt Q02156)
# T1 construct: purchased Eurofins DiscoverX KINOMEscan
# Procedure, shortened: (§1)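 Quantitative PCR measured kinase retained on an immobilized affinity ligand, i.e. kinase not bound by test compound, after 1 h binding at room temperature. Kd came from 12 half-log concentrations up to 33 μM.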
# MTOR = target: T2, MTOR (Homo sapiens, UniProt P42345)
# T2 construct: purchased Eurofins DiscoverX KINOMEscan
# Procedure, shortened: as §1
# PYK2 = target: T3, PYK2 (Homo sapiens, UniProt Q14289)
# T3 construct: purchased Eurofins DiscoverX KINOMEscan
# Procedure, shortened: (§2)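 Kd determination: 12-pt half-log series, top 33 μM; 1 h binding, RT; unbound kinase pulled down on immobilized ligand, measured by qPCR.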
# KIT (A829P) = target: T4, KIT (A829P) (Homo sapiens, UniProt P10721, A829P)
# T4 construct: purchased Eurofins DiscoverX KINOMEscan
# T4 sequence (P10721 26-976 A829P): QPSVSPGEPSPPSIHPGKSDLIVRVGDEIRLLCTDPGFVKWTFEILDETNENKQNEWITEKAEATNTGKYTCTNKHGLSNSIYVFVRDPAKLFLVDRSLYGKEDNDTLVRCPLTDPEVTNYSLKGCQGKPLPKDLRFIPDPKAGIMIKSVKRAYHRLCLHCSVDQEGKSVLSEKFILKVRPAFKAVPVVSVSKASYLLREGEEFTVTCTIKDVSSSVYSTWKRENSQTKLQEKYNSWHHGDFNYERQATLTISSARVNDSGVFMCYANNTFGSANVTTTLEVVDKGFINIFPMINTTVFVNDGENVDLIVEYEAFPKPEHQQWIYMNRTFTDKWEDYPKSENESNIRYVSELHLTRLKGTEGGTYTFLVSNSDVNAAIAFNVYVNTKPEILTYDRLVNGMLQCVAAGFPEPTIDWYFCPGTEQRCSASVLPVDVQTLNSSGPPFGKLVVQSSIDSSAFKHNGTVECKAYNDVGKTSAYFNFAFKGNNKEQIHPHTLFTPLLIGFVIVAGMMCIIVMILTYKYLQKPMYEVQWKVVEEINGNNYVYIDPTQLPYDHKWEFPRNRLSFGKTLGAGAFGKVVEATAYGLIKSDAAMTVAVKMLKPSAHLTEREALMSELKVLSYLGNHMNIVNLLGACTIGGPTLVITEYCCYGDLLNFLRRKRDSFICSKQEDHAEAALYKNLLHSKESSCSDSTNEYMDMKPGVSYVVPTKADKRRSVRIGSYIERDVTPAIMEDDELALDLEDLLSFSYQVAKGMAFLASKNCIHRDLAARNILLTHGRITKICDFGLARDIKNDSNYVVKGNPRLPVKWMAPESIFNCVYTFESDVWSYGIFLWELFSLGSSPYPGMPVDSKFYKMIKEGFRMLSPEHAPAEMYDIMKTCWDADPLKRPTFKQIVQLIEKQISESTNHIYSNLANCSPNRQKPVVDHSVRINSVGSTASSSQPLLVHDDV
# Procedure, shortened: as §2
# ACVR1B = target: T5, ACVR1B (Homo sapiens, UniProt P36896)
# T5 construct: purchased Eurofins DiscoverX KINOMEscan
# Procedure, shortened: as §1
# ABL1 (H396P)-P = target: T6, ABL1 (H396P)-P (Homo sapiens, UniProt P00519, H396P)
# T6 construct: purchased Eurofins DiscoverX KINOMEscan
# Procedure, shortened: as §2
# IRAK4 = target: T7, IRAK4 (Homo sapiens, UniProt Q9NWZ3)
# T7 construct: purchased Eurofins DiscoverX KINOMEscan
# Procedure, shortened: as §1
# PRP4 = target: T8, PRP4 (Homo sapiens, UniProt Q13523)
# T8 construct: purchased Eurofins DiscoverX KINOMEscan
# Procedure, shortened: as §1
# TYK2 (JH1 domain-cat.) = target: T9, TYK2 (JH1 domain-cat.) (Homo sapiens, UniProt P29597)
# T9 construct: TYK2 (JH1 domain-cat.); purchased Eurofins DiscoverX KINOMEscan
# Procedure, shortened: as §2
# INSRR = target: T10, INSRR (Homo sapiens, UniProt P14616)
# T10 construct: purchased Eurofins DiscoverX KINOMEscan
# Procedure, shortened: as §2
# FRK = target: T11, FRK (Homo sapiens, UniProt P42685)
# T11 construct: purchased Eurofins DiscoverX KINOMEscan
# T11 sequence (P42685 whole entry): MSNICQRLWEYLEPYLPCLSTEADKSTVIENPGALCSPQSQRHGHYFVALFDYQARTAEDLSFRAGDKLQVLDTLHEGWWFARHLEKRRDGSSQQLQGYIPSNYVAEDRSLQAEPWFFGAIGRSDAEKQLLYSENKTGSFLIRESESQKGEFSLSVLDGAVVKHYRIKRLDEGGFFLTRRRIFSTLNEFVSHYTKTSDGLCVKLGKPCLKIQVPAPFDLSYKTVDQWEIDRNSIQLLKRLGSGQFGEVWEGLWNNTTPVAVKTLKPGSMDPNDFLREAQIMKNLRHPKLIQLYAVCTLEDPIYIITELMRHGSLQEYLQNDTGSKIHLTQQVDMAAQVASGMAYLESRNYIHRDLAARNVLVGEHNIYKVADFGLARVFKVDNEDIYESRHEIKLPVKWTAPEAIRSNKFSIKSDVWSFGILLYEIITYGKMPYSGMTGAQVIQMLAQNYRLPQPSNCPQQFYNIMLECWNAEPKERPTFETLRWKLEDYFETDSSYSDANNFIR
# Procedure, shortened: as §2
# CDK7 = target: T12, CDK7 (Homo sapiens, UniProt P50613)
# T12 construct: purchased Eurofins DiscoverX KINOMEscan
# T12 sequence (P50613 whole entry): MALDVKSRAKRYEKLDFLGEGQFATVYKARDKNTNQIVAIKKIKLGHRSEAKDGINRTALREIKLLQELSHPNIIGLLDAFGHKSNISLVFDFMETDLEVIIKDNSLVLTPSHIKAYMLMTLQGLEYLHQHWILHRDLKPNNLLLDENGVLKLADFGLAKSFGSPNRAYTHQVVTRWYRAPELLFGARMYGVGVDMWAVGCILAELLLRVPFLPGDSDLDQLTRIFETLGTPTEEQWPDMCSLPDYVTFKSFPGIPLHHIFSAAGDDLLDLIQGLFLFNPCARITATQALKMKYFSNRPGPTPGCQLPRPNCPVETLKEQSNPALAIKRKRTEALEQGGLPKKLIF
# Procedure, shortened: as §2
# [1] = target: T13, TYK2 (JH2 domain-pseudokinase) (Homo sapiens, UniProt P29597)
# T13 construct: TYK2 (JH2 domain-pseudokinase); purchased Eurofins DiscoverX KINOMEscan
# Procedure, shortened: as §2
# DRAK1 = target: T14, DRAK1 (Homo sapiens, UniProt Q9UEE5)
# T14 construct: purchased Eurofins DiscoverX KINOMEscan
# Procedure, shortened: as §2
# DMPK2 = target: T15, DMPK2 (Homo sapiens, UniProt Q6DT37)
# T15 construct: purchased Eurofins DiscoverX KINOMEscan
# T15 sequence (Q6DT37 whole entry): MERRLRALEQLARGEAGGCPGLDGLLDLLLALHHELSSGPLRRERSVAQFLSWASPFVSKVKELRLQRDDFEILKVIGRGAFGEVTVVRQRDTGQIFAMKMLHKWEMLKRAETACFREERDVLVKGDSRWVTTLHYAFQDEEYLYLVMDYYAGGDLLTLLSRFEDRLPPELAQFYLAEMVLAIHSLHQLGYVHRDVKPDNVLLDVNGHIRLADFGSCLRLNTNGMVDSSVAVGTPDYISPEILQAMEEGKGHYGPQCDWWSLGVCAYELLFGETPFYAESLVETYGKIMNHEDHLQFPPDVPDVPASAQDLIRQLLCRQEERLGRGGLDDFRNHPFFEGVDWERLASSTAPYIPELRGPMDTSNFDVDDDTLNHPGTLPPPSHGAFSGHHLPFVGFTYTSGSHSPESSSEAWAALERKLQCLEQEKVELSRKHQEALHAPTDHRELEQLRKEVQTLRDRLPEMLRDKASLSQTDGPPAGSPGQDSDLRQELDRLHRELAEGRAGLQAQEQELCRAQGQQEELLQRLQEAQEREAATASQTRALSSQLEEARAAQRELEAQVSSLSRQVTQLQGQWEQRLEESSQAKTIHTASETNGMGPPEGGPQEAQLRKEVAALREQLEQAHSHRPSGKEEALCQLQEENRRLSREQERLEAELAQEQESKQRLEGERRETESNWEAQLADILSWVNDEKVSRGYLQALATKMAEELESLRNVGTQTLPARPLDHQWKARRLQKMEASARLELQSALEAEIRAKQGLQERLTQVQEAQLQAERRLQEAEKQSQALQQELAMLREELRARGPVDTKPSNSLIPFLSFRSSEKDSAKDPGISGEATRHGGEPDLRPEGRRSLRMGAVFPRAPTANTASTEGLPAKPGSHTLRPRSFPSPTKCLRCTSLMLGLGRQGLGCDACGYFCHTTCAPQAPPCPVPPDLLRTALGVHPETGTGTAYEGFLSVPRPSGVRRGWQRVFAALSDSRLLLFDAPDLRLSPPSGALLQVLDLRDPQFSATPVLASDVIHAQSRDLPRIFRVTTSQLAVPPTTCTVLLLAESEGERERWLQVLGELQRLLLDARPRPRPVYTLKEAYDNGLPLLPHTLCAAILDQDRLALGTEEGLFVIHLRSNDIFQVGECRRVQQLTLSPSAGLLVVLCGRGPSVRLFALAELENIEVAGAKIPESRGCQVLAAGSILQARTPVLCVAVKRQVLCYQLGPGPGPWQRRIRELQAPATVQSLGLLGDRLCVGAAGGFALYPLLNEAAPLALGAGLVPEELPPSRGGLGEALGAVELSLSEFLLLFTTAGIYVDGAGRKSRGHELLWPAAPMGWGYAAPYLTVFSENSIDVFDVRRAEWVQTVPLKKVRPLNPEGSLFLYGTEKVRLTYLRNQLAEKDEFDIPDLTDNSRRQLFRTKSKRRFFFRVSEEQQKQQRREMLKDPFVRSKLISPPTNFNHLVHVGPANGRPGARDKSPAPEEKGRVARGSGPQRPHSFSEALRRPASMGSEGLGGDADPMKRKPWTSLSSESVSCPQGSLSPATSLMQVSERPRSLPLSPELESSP
# Procedure, shortened: as §2
# CDK2 = target: T16, CDK2 (Homo sapiens, UniProt P24941)
# T16 construct: purchased Eurofins DiscoverX KINOMEscan
# Procedure, shortened: as §2
# ULK3 = target: T17, ULK3 (Homo sapiens, UniProt Q6PHR2)
# T17 construct: purchased Eurofins DiscoverX KINOMEscan
# Procedure, shortened: as §1
# GSK3A = target: T18, GSK3A (Homo sapiens, UniProt P49840)
# T18 construct: purchased Eurofins DiscoverX KINOMEscan
# Procedure, shortened: as §2
# WNK2 = target: T19, WNK2 (Homo sapiens, UniProt Q9Y3S1)
# T19 construct: purchased Eurofins DiscoverX KINOMEscan
# Procedure, shortened: as §2
# MAP3K4 = target: T20, MAP3K4 (Homo sapiens, UniProt Q9Y6R4)
# T20 construct: purchased Eurofins DiscoverX KINOMEscan
# Procedure, shortened: as §1
# PRKCI = target: T21, PRKCI (Homo sapiens, UniProt P41743)
# T21 construct: purchased Eurofins DiscoverX KINOMEscan
# Procedure, shortened: as §2
# ZAP70 = target: T22, ZAP70 (Homo sapiens, UniProt P43403)
# T22 construct: purchased Eurofins DiscoverX KINOMEscan
# Procedure, shortened: as §2
# PRKD1 = target: T23, PRKD1 (Homo sapiens, UniProt Q15139)
# T23 construct: purchased Eurofins DiscoverX KINOMEscan
# T23 sequence (Q15139 whole entry): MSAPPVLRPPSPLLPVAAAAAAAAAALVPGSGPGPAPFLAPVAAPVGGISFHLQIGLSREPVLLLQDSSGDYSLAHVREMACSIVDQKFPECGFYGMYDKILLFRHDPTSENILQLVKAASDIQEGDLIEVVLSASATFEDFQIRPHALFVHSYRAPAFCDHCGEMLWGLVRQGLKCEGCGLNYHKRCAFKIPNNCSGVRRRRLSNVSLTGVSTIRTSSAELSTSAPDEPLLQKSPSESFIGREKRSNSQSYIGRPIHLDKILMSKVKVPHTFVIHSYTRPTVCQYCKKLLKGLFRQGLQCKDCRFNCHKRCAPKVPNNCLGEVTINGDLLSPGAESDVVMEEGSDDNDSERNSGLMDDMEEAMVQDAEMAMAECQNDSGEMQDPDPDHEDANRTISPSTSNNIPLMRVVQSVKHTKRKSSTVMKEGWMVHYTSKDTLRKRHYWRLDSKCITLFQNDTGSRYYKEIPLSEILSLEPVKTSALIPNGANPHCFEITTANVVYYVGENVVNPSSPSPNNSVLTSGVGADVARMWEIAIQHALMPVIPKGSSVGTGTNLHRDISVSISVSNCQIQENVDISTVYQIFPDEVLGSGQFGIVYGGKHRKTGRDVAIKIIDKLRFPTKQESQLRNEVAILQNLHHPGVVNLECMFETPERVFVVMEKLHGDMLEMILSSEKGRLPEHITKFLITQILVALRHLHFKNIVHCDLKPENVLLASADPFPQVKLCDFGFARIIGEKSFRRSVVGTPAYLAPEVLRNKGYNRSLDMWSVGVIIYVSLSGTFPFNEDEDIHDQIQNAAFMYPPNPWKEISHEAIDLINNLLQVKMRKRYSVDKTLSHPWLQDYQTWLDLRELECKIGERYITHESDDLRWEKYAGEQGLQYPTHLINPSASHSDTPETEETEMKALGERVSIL
# Procedure, shortened: as §2
# [2] = target: T24, JAK1 (JH2domain-pseudokinase) (Homo sapiens, UniProt P23458)
# T24 construct: JAK1 (JH2domain-pseudokinase); purchased Eurofins DiscoverX KINOMEscan
# Procedure, shortened: as §1
# KIT (V559D, T670I) = target: T25, KIT (V559D, T670I) (Homo sapiens, UniProt P10721, T670I/V559D)
# T25 construct: purchased Eurofins DiscoverX KINOMEscan
# T25 sequence (P10721 26-976 V559D/T670I): as the sequence (P10721 26-976 A829P) above, with V534D, T645I, P804A counted along it
# Procedure, shortened: as §2
# ACVR2B = target: T26, ACVR2B (Homo sapiens, UniProt Q13705)
# T26 construct: purchased Eurofins DiscoverX KINOMEscan
# Procedure, shortened: as §1
# CSNK1E = target: T27, CSNK1E (Homo sapiens, UniProt P49674)
# T27 construct: purchased Eurofins DiscoverX KINOMEscan
# T27 sequence (P49674 whole entry): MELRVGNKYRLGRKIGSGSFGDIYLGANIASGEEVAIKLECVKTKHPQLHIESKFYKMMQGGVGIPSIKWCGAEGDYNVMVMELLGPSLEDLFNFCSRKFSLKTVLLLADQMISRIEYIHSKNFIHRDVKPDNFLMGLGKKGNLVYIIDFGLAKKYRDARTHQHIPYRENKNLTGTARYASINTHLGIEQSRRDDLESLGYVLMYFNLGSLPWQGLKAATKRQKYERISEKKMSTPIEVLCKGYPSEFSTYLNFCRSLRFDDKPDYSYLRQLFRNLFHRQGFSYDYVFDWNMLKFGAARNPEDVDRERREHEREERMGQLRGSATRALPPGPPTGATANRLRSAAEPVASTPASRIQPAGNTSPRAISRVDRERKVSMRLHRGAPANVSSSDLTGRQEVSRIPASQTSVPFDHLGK
# Procedure, shortened: as §1
# [3] = target: T28, RPS6KA5 (Kin. Dom.1-N-term.) (Homo sapiens, UniProt O75582)
# T28 construct: RPS6KA5 (Kin. Dom.1-N-term.); purchased Eurofins DiscoverX KINOMEscan
# Procedure, shortened: as §2
# SGK3 = target: T29, SGK3 (Homo sapiens, UniProt Q96BR1)
# T29 construct: purchased Eurofins DiscoverX KINOMEscan
# Procedure, shortened: as §1
# TRKC = target: T30, TRKC (Homo sapiens, UniProt Q16288)
# T30 construct: purchased Eurofins DiscoverX KINOMEscan
# Procedure, shortened: as §1
# ERK3 = target: T31, ERK3 (Homo sapiens, UniProt Q16659)
# T31 construct: purchased Eurofins DiscoverX KINOMEscan
# Procedure, shortened: as §2
# JNK1 = target: T32, JNK1 (Homo sapiens, UniProt P45983)
# T32 construct: purchased Eurofins DiscoverX KINOMEscan
# Procedure, shortened: as §1
# BRSK1 = target: T33, BRSK1 (Homo sapiens, UniProt Q8TDC3)
# T33 construct: purchased Eurofins DiscoverX KINOMEscan
# Procedure, shortened: as §2
# CSNK1A1 = target: T34, CSNK1A1 (Homo sapiens, UniProt P48729)
# T34 construct: purchased Eurofins DiscoverX KINOMEscan
# T34 sequence (P48729 whole entry): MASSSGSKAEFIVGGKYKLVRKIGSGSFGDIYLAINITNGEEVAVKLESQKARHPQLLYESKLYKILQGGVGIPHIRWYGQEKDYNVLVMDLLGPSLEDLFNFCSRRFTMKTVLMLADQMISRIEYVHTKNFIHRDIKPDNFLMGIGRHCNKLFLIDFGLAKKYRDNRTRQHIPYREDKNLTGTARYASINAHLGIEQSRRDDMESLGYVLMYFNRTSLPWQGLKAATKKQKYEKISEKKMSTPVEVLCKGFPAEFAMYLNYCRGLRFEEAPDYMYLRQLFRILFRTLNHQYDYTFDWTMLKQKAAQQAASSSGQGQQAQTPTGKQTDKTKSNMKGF
# Procedure, shortened: as §2
# EPHB2 = target: T35, EPHB2 (Homo sapiens, UniProt P29323)
# T35 construct: purchased Eurofins DiscoverX KINOMEscan
# Procedure, shortened: as §1
# IKK-ε = target: T36, IKK-ε (Homo sapiens, UniProt Q14164)
# T36 construct: purchased Eurofins DiscoverX KINOMEscan
# Procedure, shortened: as §1
# MST2 = target: T37, MST2 (Homo sapiens, UniProt Q13188)
# T37 construct: purchased Eurofins DiscoverX KINOMEscan
# Procedure, shortened: as §2
# DDR1 = target: T38, DDR1 (Homo sapiens, UniProt Q08345)
# T38 construct: purchased Eurofins DiscoverX KINOMEscan
# Procedure, shortened: as §1
compound,measurement,setting,value
"O=C1Nc2c(cc([N+](=O)[O-])c3c2CCCC3)C1=NO [Compound 5d, 3-(Hydroxyimino)-5-nitro-1,3,6,7,8,9-hexahydro-2H-benzo[g]indol-2-one]",inhibition at 10 µM,PRKCE,61%
same,inhibition at 10 µM,MTOR,56%
same,inhibition at 10 µM,PYK2,0%
same,inhibition at 10 µM,KIT (A829P),0%
same,inhibition at 10 µM,ACVR1B,10%
same,inhibition at 10 µM,ABL1 (H396P)-P,41%
same,inhibition at 10 µM,IRAK4,86%
same,inhibition at 10 µM,PRP4,38%
same,inhibition at 10 µM,TYK2 (JH1 domain-cat.),90%
same,inhibition at 10 µM,INSRR,4%
same,inhibition at 10 µM,FRK,0%
same,inhibition at 10 µM,CDK7,95.8%
same,inhibition at 10 µM,[1],89.8%
same,inhibition at 10 µM,DRAK1,76%
same,inhibition at 10 µM,DMPK2,3%
same,inhibition at 10 µM,CDK2,9%
same,inhibition at 10 µM,ULK3,55%
same,inhibition at 10 µM,GSK3A,57%
same,inhibition at 10 µM,WNK2,0%
same,inhibition at 10 µM,MAP3K4,15%
same,inhibition at 10 µM,PRKCI,49%
same,inhibition at 10 µM,ZAP70,2%
same,inhibition at 10 µM,PRKD1,61%
same,inhibition at 10 µM,[2],89%
same,inhibition at 10 µM,"KIT (V559D, T670I)",55%
same,inhibition at 10 µM,ACVR2B,25%
same,inhibition at 10 µM,CSNK1E,80%
same,inhibition at 10 µM,[3],4%
same,inhibition at 10 µM,SGK3,55%
same,inhibition at 10 µM,TRKC,31%
same,inhibition at 10 µM,ERK3,0%
same,inhibition at 10 µM,JNK1,76%
same,inhibition at 10 µM,BRSK1,36%
same,inhibition at 10 µM,CSNK1A1,93.5%
same,inhibition at 10 µM,EPHB2,11%
same,inhibition at 10 µM,IKK-ε,23%
same,inhibition at 10 µM,MST2,39%
same,inhibition at 10 µM,DDR1,0%
